Laboratory results taken from patent publication US7161032B2, “Sulfonamide derivatives, insecticides for agricultural and horticultural use, and usage thereof” (Nihon Nohyaku Co., Ltd., priority 2002, dated 2007).

Tests used:
Assay type in all cases: in vivo
[1] = test system: Diamond Back Moth (Plutella xylostella); test: Insecticidal effect on diamond back moth (Test Example 1): egg-bearing Chinese cabbage seedling immersed in 50 ppm liquid chemical
In short: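 Seedlings bearing 2-day-old eggs dipped about 30 s in 50 ppm formulated compound, air-dried, held at 25° C. Hatched larvae counted 6 days after immersion; mortality calculated and graded by criterion. Triplicate groups of 10 insects.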

[2] = test system: Common Cutworm (Spodoptera litura); test: Insecticidal effect on common cutworm (Test Example 2): cabbage leaf piece immersed in 50 ppm liquid chemical; details: common cutworm (Spodoptera litura) second-instar larvae, 8 days after inoculation, 25° C.
In short: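 Cabbage leaf pieces (cv. Shikidori) dipped ~30 s in formulated compound at 50 ppm and air-dried. Second-instar larvae added, kept at 25° C. Dead and alive counted at 8 days to give % mortality, scored against a criterion scale; three groups of 10 insects.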

[3] = test system: Smaller Tea Tortrix (Adoxophyes sp.); test: Insecticidal effect on smaller tea tortrix (Test Example 3): tea leaves immersed in 50 ppm liquid chemical; details: smaller tea tortrix (Adoxophyes sp.) larvae, 8 days after inoculation, 25° C., humidity 70%
In short: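 Tea leaves dipped about 30 seconds in 50 ppm compound preparation, air-dried, then infested with larvae and held at 25° C and 70% humidity. Dead and alive counted 8 days after inoculation; triplicate groups of 10 insects.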

Cc1cc(C(F)(F)C(F)(F)F)ccc1NC(=O)c1cccc(I)c1C(=O)NC(C)(C)CS(=O)(=O)NCc1ccccc1 [1-303]
A (Mortality 100%): Insecticidal effect (mortality grade), Test Example 1 [1] | Insecticidal effect (mortality grade), Test Example 2 [2] | Insecticidal effect (mortality grade), Test Example 3 [3]

CSCCNS(=O)(=O)CC(C)(C)NC(=O)c1c(I)cccc1C(=O)Nc1ccc(C(F)(F)C(F)(F)F)cc1C [1-304]
A (Mortality 100%): Insecticidal effect (mortality grade), Test Example 1 [1] | Insecticidal effect (mortality grade), Test Example 2 [2] | Insecticidal effect (mortality grade), Test Example 3 [3]

Cc1cc(C(F)(F)C(F)(F)F)ccc1NC(=O)c1cccc(I)c1C(=O)NC(C)(C)CS(=O)(=O)NCC[S+](C)[O-] (stereo not drawn) [1-305]
A (Mortality 100%): Insecticidal effect (mortality grade), Test Example 1 [1] | Insecticidal effect (mortality grade), Test Example 2 [2] | Insecticidal effect (mortality grade), Test Example 3 [3]

Cc1cc(C(F)(F)C(F)(F)F)ccc1NC(=O)c1cccc(I)c1C(=O)NC(C)(C)CS(=O)(=O)NCCS(C)(=O)=O [1-306]
A (Mortality 100%): Insecticidal effect (mortality grade), Test Example 1 [1] | Insecticidal effect (mortality grade), Test Example 2 [2] | Insecticidal effect (mortality grade), Test Example 3 [3]

CCSCCNS(=O)(=O)CC(C)(C)NC(=O)c1c(I)cccc1C(=O)Nc1ccc(C(F)(F)C(F)(F)F)cc1C [1-307]
A (Mortality 100%): Insecticidal effect (mortality grade), Test Example 1 [1] | Insecticidal effect (mortality grade), Test Example 2 [2] | Insecticidal effect (mortality grade), Test Example 3 [3]

CC[S+]([O-])CCNS(=O)(=O)CC(C)(C)NC(=O)c1c(I)cccc1C(=O)Nc1ccc(C(F)(F)C(F)(F)F)cc1C (stereo not drawn) [1-308]
A (Mortality 100%): Insecticidal effect (mortality grade), Test Example 1 [1] | Insecticidal effect (mortality grade), Test Example 2 [2] | Insecticidal effect (mortality grade), Test Example 3 [3]

CCS(=O)(=O)CCNS(=O)(=O)CC(C)(C)NC(=O)c1c(I)cccc1C(=O)Nc1ccc(C(F)(F)C(F)(F)F)cc1C [1-309]
A (Mortality 100%): Insecticidal effect (mortality grade), Test Example 1 [1] | Insecticidal effect (mortality grade), Test Example 2 [2] | Insecticidal effect (mortality grade), Test Example 3 [3]

Cc1cc(C(F)(F)C(F)(F)F)ccc1NC(=O)c1cccc(I)c1C(=O)NC(C)(C)CS(=O)(=O)NCCSc1ccccc1 [1-310]
A (Mortality 100%): Insecticidal effect (mortality grade), Test Example 1 [1] | Insecticidal effect (mortality grade), Test Example 2 [2] | Insecticidal effect (mortality grade), Test Example 3 [3]

Cc1cc(C(C(F)(F)F)C(F)(F)F)ccc1NC(=O)c1cccc(I)c1C(=O)NC(C)CS(N)(=O)=O (stereo not drawn) [1-342]
A (Mortality 100%): Insecticidal effect (mortality grade), Test Example 1 [1] | Insecticidal effect (mortality grade), Test Example 2 [2] | Insecticidal effect (mortality grade), Test Example 3 [3]

CCN(CC)S(=O)(=O)CC(C)(C)NC(=O)c1c(I)cccc1C(=O)Nc1ccc(C(C(F)(F)F)C(F)(F)F)cc1C [1-344]
A (Mortality 100%): Insecticidal effect (mortality grade), Test Example 1 [1] | Insecticidal effect (mortality grade), Test Example 2 [2] | Insecticidal effect (mortality grade), Test Example 3 [3]

Cc1cc(C(C(F)(F)F)C(F)(F)F)ccc1NC(=O)c1cccc(I)c1C(=O)NC(C)(C)CS(=O)(=O)N1CCCC1 [1-345]
A (Mortality 100%): Insecticidal effect (mortality grade), Test Example 1 [1] | Insecticidal effect (mortality grade), Test Example 2 [2] | Insecticidal effect (mortality grade), Test Example 3 [3]
